# Assays:
# [1] = tested on: human lymphoblastoid TK6 cells, thymidine kinase gene; test: TK gene mutation assay (TK6 assay, OECD TG490); details: for MF: graph sheet, TK6, 24 h
# Procedure: In principle, this collaborative study conducted the treatment of test substances, the dose finding, and the main test of TK6 assays, according to the OECD Guideline TG490 [17]. […] Briefly, test substances were dissolved in an appropriate solvent (DMSO or ethanol) and then serially diluted to prepare final concentrations. […] The 4 h and 24 h treatments were conducted by shaking and static exposures, respectively. After treatment with test substances, cells were centrifuged (1000 rpm, 5 min), supernatants were removed, and cells were washed with a serum-free medium or Hank’s Balanced Salt Solution. After centrifugation (1000 rpm, 5 min) to remove the supernatant, cells (2 × 10^7 cells) were dispersed in an RPMI medium containing 10% serum, and cell concentration was measured. Treated cells were cultured at 37 °C with 5% CO2 condition and used for TK6 assays. At that time, to calculate the cloning efficiency (CE) (Eq. 1), the cells were cultured in a 96-well microplate at a concentration of about 1.6 cells/well for 2 weeks.
# The TK6 assay is conducted between 20 and 10% RS0 as a maximum dose if cytotoxicity is observed. If no precipitate or limiting cytotoxicity was observed, the maximum dose was the lowest concentration among 10 mM, 2 mg/mL, or 2 μL/mL of the test substance. When the main TK6 assay was difficult to conduct under the condition of RS0 values from 20 to 10%, the test was conducted between 20 and 10% relative total growth (RTG), described later, as a maximum dose.
# On the third day of culture, CE3 plates for determining plating efficiency and mutant frequency (MF) plates for mutation detection were prepared. CE3 plates were seeded in 96-well microplates at a concentration of about 1.6 cells/well. The MF plates were seeded in 96-well microplates at 40,000 cells/well in the presence of 3 μg/mL of trifluorothymidine (Sigma Aldrich).
# Mutant colonies in MF plates were calculated using Eq. 7 using the Poisson distribution. EW was the number of wells without colonies, and TW was the total number of wells. N was the average number of cells per well (N = 40,000 in this study). The data were statistically analyzed by Omori’s method, a modified Dunnett’s procedure for identifying clear negatives, a Simpson–Margolin procedure for detecting downturn data, and a trend test to evaluate the dose dependency [42, 43]. The acceptability criterion for the test was that the MF value of the positive control group of each laboratory was increased with statistical significance compared with that of the concurrent negative control group.
# TK6 cells = test: Cytotoxicity in the TK6 assay (CE, RS, RSG, RTG); details: for RS: graph sheet, TK6, 24 h
# Procedure: Briefly, test substances were dissolved in an appropriate solvent (DMSO or ethanol) and then serially diluted to prepare final concentrations. […] The 4 h and 24 h treatments were conducted by shaking and static exposures, respectively. After treatment with test substances, cells were centrifuged (1000 rpm, 5 min), supernatants were removed, and cells were washed with a serum-free medium or Hank’s Balanced Salt Solution. After centrifugation (1000 rpm, 5 min) to remove the supernatant, cells (2 × 10^7 cells) were dispersed in an RPMI medium containing 10% serum, and cell concentration was measured. Treated cells were cultured at 37 °C with 5% CO2 condition and used for TK6 assays. At that time, to calculate the cloning efficiency (CE) (Eq. 1), the cells were cultured in a 96-well microplate at a concentration of about 1.6 cells/well for 2 weeks.
# CE, the cell colony formation rate, was calculated using Eq. 1 according to the Poisson distribution equation. EW was the number of wells without colonies, and TW was the total number of wells. N was the average number of cells per well (N = 1.6). 1 CE=−lnEW/TW/N
# Additionally, CE was adjusted by the following calculation (Eq. 2) due to cell loss when exposure caused cytotoxicity. “The number of cells at the end of the treatment” was the number of cells obtained after centrifugation at the end of the treatment in the above-described exposure treatment of the test substance. The “cell number at the start of treatment” was 2 × 10^7. 2 AdjustedCE=CE×number of cellsatendof treatment/number of cellsatthe start of treatment
# CE0 seeding, in which cells were seeded immediately after treatment, and CE3 seeding, in which cells were seeded 3 days after treatment, to examine cell viability in the TK6 assay described below. The relative cell viability RS0 (%) just after the treatment with the test substance was calculated from CE0, following Eq. 3. The survival rate of the negative control group was defined as 100%. 3 RS0%=adjusted CE0 of treatment culture/adjusted CE0 of solvent control×100
# The TK6 assay is conducted between 20 and 10% RS0 as a maximum dose if cytotoxicity is observed. […] When the main TK6 assay was difficult to conduct under the condition of RS0 values from 20 to 10%, the test was conducted between 20 and 10% relative total growth (RTG), described later, as a maximum dose.
# Besides RS0, relative suspension growth (RSG) and RTG as other cytotoxicity indices (Eq. 4) were used. When cells were cultured for 3 days after treatment with the test substance, suspension cell growth ratio 1 (SG1) was the growth ratio from day 0 to day 1 (cell concentration on day 1/cell concentration on day 0). The suspension cell growth ratio 2 (SG2) was the growth ratio from day 1 to day 2 (cell concentration on day 2/cell concentration on day 1). The RSG value was calculated by dividing the total SG value of the untreated group for 3 days by the total SG value of the treated group for the same 3 days (Eq. 4).
# On the third day of culture, CE3 plates for determining plating efficiency and mutant frequency (MF) plates for mutation detection were prepared. CE3 plates were seeded in 96-well microplates at a concentration of about 1.6 cells/well.
# [2] = TK6, 24 h treatment, -S9 mix, dose 60.00 μg/mL
# [3] = TK6, 24 h treatment, -S9 mix, dose 90.00 μg/mL
# [4] = TK6, 24 h treatment, -S9 mix, dose 200.0 μg/mL
# [5] = TK6, 24 h treatment, -S9 mix, dose 220.0 μg/mL
# [6] = short treatment, +S9 mix, dose 62.5 μg/mL
# [7] = short treatment, +S9 mix, dose 250 μg/mL
# [8] = short treatment, +S9 mix, dose 500 μg/mL
# [9] = short treatment, +S9 mix, dose 1000 μg/mL
# [10] = short treatment, +S9 mix, dose 2000 μg/mL
# [11] = short treatment, -S9 mix, dose 62.50 μg/mL
# [12] = short treatment, -S9 mix, dose 500.0 μg/mL
# [13] = short treatment, -S9 mix, dose 1000.0 μg/mL
# [14] = short treatment, -S9 mix, dose 2000.0 μg/mL
# [15] = short treatment, +S9 mix, Day 0, dose 62.5 μg/mL
# [16] = short treatment, +S9 mix, Day 0, dose 250 μg/mL
# [17] = short treatment, +S9 mix, Day 0, dose 500 μg/mL
# [18] = short treatment, +S9 mix, Day 0, dose 1000 μg/mL
# [19] = short treatment, +S9 mix, Day 0, dose 2000 μg/mL
# [20] = short treatment, -S9 mix, Day 0, dose 62.50 μg/mL
# [21] = short treatment, -S9 mix, Day 0, dose 500.0 μg/mL
# [22] = short treatment, -S9 mix, Day 0, dose 1000.0 μg/mL
# [23] = short treatment, -S9 mix, Day 0, dose 2000.0 μg/mL
smiles,measurement,setting,value
O=[N+]([O-])c1cc(N(CCO)CCO)ccc1NCCO [HC blue no2],%SG,[1]; [2],47.5%
same,Mut. freq. N-MF,[1]; [2],1.5 ×10-6
same,Mut. freq. S-MF,[1]; [2],1.4 ×10-6
same,Mut. freq. T-MF,[1]; [2],2.9 ×10-6
same,%SG,[1]; [3],74.7%
same,Mut. freq. N-MF,[1]; [3],0.528 ×10-6
same,Mut. freq. S-MF,[1]; [3],1.6 ×10-6
same,Mut. freq. T-MF,[1]; [3],2.1 ×10-6
same,%SG,[1]; [4],48.2%
same,Mut. freq. N-MF,[1]; [4],3.7 ×10-6
same,Mut. freq. S-MF,[1]; [4],3.4 ×10-6
same,Mut. freq. T-MF,[1]; [4],7.1 ×10-6
same,%SG,[1]; [5],52.5%
same,Mut. freq. N-MF,[1]; [5],5.1 ×10-6
same,Mut. freq. S-MF,[1]; [5],5.7 ×10-6
same,Mut. freq. T-MF,[1]; [5],10.8 ×10-6
same,MF,"[1]; -S9 mix, dose 60.00 μg/mL",2.9
same,MF,"[1]; -S9 mix, dose 90.00 μg/mL",2.1
same,MF,"[1]; -S9 mix, dose 200.0 μg/mL",7.1
same,MF,"[1]; -S9 mix, dose 220.0 μg/mL",10.8
same,%SG,[1]; [6],50.7%
same,Mut. freq. N-MF,[1]; [6],0.7 ×10-6
same,Mut. freq. S-MF,[1]; [6],0.7 ×10-6
same,Mut. freq. T-MF,[1]; [6],1.5 ×10-6
same,%SG,[1]; [7],22.9%
same,Mut. freq. N-MF,[1]; [7],2.4 ×10-6
same,Mut. freq. S-MF,[1]; [7],0.7 ×10-6
same,Mut. freq. T-MF,[1]; [7],3.0 ×10-6
same,%SG,[1]; [8],42.4%
same,Mut. freq. N-MF,[1]; [8],1.9 ×10-6
same,Mut. freq. S-MF,[1]; [8],1.4 ×10-6
same,Mut. freq. T-MF,[1]; [8],3.3 ×10-6
same,%SG,[1]; [9],28.4%
same,Mut. freq. N-MF,[1]; [9],2.8 ×10-6
same,Mut. freq. S-MF,[1]; [9],1.1 ×10-6
same,Mut. freq. T-MF,[1]; [9],3.9 ×10-6
same,%SG,[1]; [10],48.7%
same,Mut. freq. N-MF,[1]; [10],1.3 ×10-6
same,Mut. freq. S-MF,[1]; [10],1.2 ×10-6
same,Mut. freq. T-MF,[1]; [10],2.5 ×10-6
same,%SG,[1]; [11],23.1%
same,Mut. freq. N-MF,[1]; [11],1.5 ×10-6
same,Mut. freq. S-MF,[1]; [11],0.455 ×10-6
same,Mut. freq. T-MF,[1]; [11],2.0 ×10-6
same,%SG,[1]; [12],55.5%
same,Mut. freq. N-MF,[1]; [12],1.8 ×10-6
same,Mut. freq. S-MF,[1]; [12],2.3 ×10-6
same,Mut. freq. T-MF,[1]; [12],4.1 ×10-6
same,%SG,[1]; [13],26.3%
same,Mut. freq. N-MF,[1]; [13],2.3 ×10-6
same,Mut. freq. S-MF,[1]; [13],0.8 ×10-6
same,Mut. freq. T-MF,[1]; [13],3.1 ×10-6
same,%SG,[1]; [14],51.7%
same,Mut. freq. N-MF,[1]; [14],1.8 ×10-6
same,Mut. freq. S-MF,[1]; [14],1.9 ×10-6
same,Mut. freq. T-MF,[1]; [14],3.7 ×10-6
same,Adjusted CE0,TK6 cells; [2],341.6%
same,CE0 (cell viability on Day 0),TK6 cells; [2],112.0%
same,CE3 (cell viability on Day 3),TK6 cells; [2],116.0%
same,RS0,TK6 cells; [2],128.6%
same,RSG,TK6 cells; [2],0.865
same,Adjusted CE0,TK6 cells; [3],259.2%
same,CE0 (cell viability on Day 0),TK6 cells; [3],81.6%
same,CE3 (cell viability on Day 3),TK6 cells; [3],125.0%
same,RS0,TK6 cells; [3],97.6%
same,RSG,TK6 cells; [3],0.765
same,Adjusted CE0,TK6 cells; [4],96.6%
same,CE0 (cell viability on Day 0),TK6 cells; [4],50.2%
same,CE3 (cell viability on Day 3),TK6 cells; [4],112.0%
same,RS0,TK6 cells; [4],36.4%
same,RSG,TK6 cells; [4],0.241
same,Adjusted CE0,TK6 cells; [5],48.2%
same,CE0 (cell viability on Day 0),TK6 cells; [5],28.3%
same,CE3 (cell viability on Day 3),TK6 cells; [5],101.2%
same,RS0,TK6 cells; [5],18.1%
same,RSG,TK6 cells; [5],0.106
same,CE3,"TK6 cells; as fraction, mutation frequency table, TK6, 24 h treatment, -S9 mix, dose 60.00 μg/mL",1.160
same,CE3,"TK6 cells; as fraction, mutation frequency table, TK6, 24 h treatment, -S9 mix, dose 90.00 μg/mL",1.250
same,CE3,"TK6 cells; as fraction, mutation frequency table, TK6, 24 h treatment, -S9 mix, dose 200.0 μg/mL",1.120
same,CE3,"TK6 cells; as fraction, mutation frequency table, TK6, 24 h treatment, -S9 mix, dose 220.0 μg/mL",1.012
same,RS,"TK6 cells; -S9 mix, dose 60.00 μg/mL",128.6
same,RS,"TK6 cells; -S9 mix, dose 90.00 μg/mL",97.6
same,RS,"TK6 cells; -S9 mix, dose 200.0 μg/mL",36.4
same,RS,"TK6 cells; -S9 mix, dose 220.0 μg/mL",18.1
same,Adjusted CE0,TK6 cells; [15],91.4%
same,CE0,TK6 cells; [15],81.6%
same,RS0,TK6 cells; [15],96.7%
same,Adjusted CE0,TK6 cells; [16],89.0%
same,CE0,TK6 cells; [16],74.8%
same,RS0,TK6 cells; [16],94.2%
same,Adjusted CE0,TK6 cells; [17],80.9%
same,CE0,TK6 cells; [17],79.3%
same,RS0,TK6 cells; [17],85.5%
same,Adjusted CE0,TK6 cells; [18],69.1%
same,CE0,TK6 cells; [18],59.6%
same,RS0,TK6 cells; [18],73.1%
same,Adjusted CE0,TK6 cells; [19],58.5%
same,CE0,TK6 cells; [19],54.7%
same,RS0,TK6 cells; [19],61.9%
same,CE3,"TK6 cells; short treatment, +S9 mix, Day 3, dose 62.5 μg/mL",92.1%
same,CE3,"TK6 cells; short treatment, +S9 mix, Day 3, dose 250 μg/mL",104.6%
same,CE3,"TK6 cells; short treatment, +S9 mix, Day 3, dose 500 μg/mL",92.1%
same,CE3,"TK6 cells; short treatment, +S9 mix, Day 3, dose 1000 μg/mL",108.2%
same,CE3,"TK6 cells; short treatment, +S9 mix, Day 3, dose 2000 μg/mL",104.6%
same,CE3,"TK6 cells; short treatment, +S9 mix, as fraction, dose 62.5 μg/mL",0.921
same,CE3,"TK6 cells; short treatment, +S9 mix, as fraction, dose 250 μg/mL",1.046
same,CE3,"TK6 cells; short treatment, +S9 mix, as fraction, dose 500 μg/mL",0.921
same,CE3,"TK6 cells; short treatment, +S9 mix, as fraction, dose 1000 μg/mL",1.082
same,CE3,"TK6 cells; short treatment, +S9 mix, as fraction, dose 2000 μg/mL",1.046
same,RSG,TK6 cells; [6],1.016
same,RSG,TK6 cells; [7],1.004
same,RSG,TK6 cells; [8],1.149
same,RSG,TK6 cells; [9],0.770
same,RSG,TK6 cells; [10],0.963
same,Adjusted CE0,TK6 cells; [20],82.4%
same,CE0,TK6 cells; [20],77.0%
same,RS0,TK6 cells; [20],94.7%
same,Adjusted CE0,TK6 cells; [21],97.6%
same,CE0,TK6 cells; [21],92.1%
same,RS0,TK6 cells; [21],112.2%
same,Adjusted CE0,TK6 cells; [22],99.4%
same,CE0,TK6 cells; [22],92.1%
same,RS0,TK6 cells; [22],114.3%
same,Adjusted CE0,TK6 cells; [23],93.9%
same,CE0,TK6 cells; [23],92.1%
same,RS0,TK6 cells; [23],107.9%
same,CE3,"TK6 cells; short treatment, -S9 mix, Day 3, dose 62.50 μg/mL",125.0%
same,CE3,"TK6 cells; short treatment, -S9 mix, Day 3, dose 500.0 μg/mL",95.0%
same,CE3,"TK6 cells; short treatment, -S9 mix, Day 3, dose 1000.0 μg/mL",108.2%
same,CE3,"TK6 cells; short treatment, -S9 mix, Day 3, dose 2000.0 μg/mL",89.3%
same,CE3,"TK6 cells; short treatment, -S9 mix, as fraction, dose 62.50 μg/mL",1.250
same,CE3,"TK6 cells; short treatment, -S9 mix, as fraction, dose 500.0 μg/mL",0.950
same,CE3,"TK6 cells; short treatment, -S9 mix, as fraction, dose 1000.0 μg/mL",1.082
same,CE3,"TK6 cells; short treatment, -S9 mix, as fraction, dose 2000.0 μg/mL",0.893
same,RSG,TK6 cells; [11],0.906
same,RSG,TK6 cells; [12],1.168
same,RSG,TK6 cells; [13],0.743
same,RSG,TK6 cells; [14],0.681

# Reference: article PMC7937321 (Genes and Environment, 2021)
